In PubChem BioAssay (NCI):
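Test compounds were applied to cells in 96-well plates for 48 hours at 5 doses. The concentration for full growth arrest is given as TGI.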

What was measured:
Assay in all cases: growth of human tumour cells (NCI), 48 h
786-0 renal = system: 786-0 renal
A498 renal = system: A498 renal
A549 NSCLC = system: A549 NSCLC
ACHN renal = system: ACHN renal
BT-549 breast = system: BT-549 breast
CAKI-1 renal = system: CAKI-1 renal
CCRF-CEM leukemia = system: CCRF-CEM leukemia
COLO 205 colon = system: COLO 205 colon
DU-145 prostate = system: DU-145 prostate
EKVX NSCLC = system: EKVX NSCLC
HCC-2998 colon = system: HCC-2998 colon
HCT-116 colon = system: HCT-116 colon
HCT-15 colon = system: HCT-15 colon
HL-60(TB) leukemia = system: HL-60(TB) leukemia
HOP-62 NSCLC = system: HOP-62 NSCLC
HOP-92 NSCLC = system: HOP-92 NSCLC
HS 578T breast = system: HS 578T breast
HT29 colon = system: HT29 colon
IGROV1 ovarian = system: IGROV1 ovarian
K-562 leukemia = system: K-562 leukemia
KM12 colon = system: KM12 colon
LOX IMVI melanoma = system: LOX IMVI melanoma
M14 melanoma = system: M14 melanoma
MALME-3M melanoma = system: MALME-3M melanoma
MCF7 breast = system: MCF7 breast
MDA-MB-231 breast = system: MDA-MB-231 breast
MDA-MB-435 = system: MDA-MB-435
MDA-N = system: MDA-N
MOLT-4 leukemia = system: MOLT-4 leukemia
NCI-H226 lung = system: NCI-H226 lung
NCI-H23 lung = system: NCI-H23 lung
NCI-H460 lung = system: NCI-H460 lung
NCI/ADR-RES ovarian = system: NCI/ADR-RES ovarian
OVCAR-3 ovarian = system: OVCAR-3 ovarian
OVCAR-4 ovarian = system: OVCAR-4 ovarian
OVCAR-5 ovarian = system: OVCAR-5 ovarian
OVCAR-8 ovarian = system: OVCAR-8 ovarian
PC-3 prostate = system: PC-3 prostate
RPMI-8226 leukemia = system: RPMI-8226 leukemia
RXF 393 renal = system: RXF 393 renal
SF-268 CNS = system: SF-268 CNS
SF-295 CNS = system: SF-295 CNS
SF-539 CNS = system: SF-539 CNS
SK-MEL-2 melanoma = system: SK-MEL-2 melanoma
SK-MEL-28 melanoma = system: SK-MEL-28 melanoma
SK-MEL-5 melanoma = system: SK-MEL-5 melanoma
SK-OV-3 ovarian = system: SK-OV-3 ovarian
SN12C renal = system: SN12C renal
SNB-19 CNS = system: SNB-19 CNS
SNB-75 CNS = system: SNB-75 CNS
SR leukemia = system: SR leukemia
SW-620 colon = system: SW-620 colon
T-47D breast = system: T-47D breast
TK-10 renal = system: TK-10 renal
U251 CNS = system: U251 CNS
UACC-257 melanoma = system: UACC-257 melanoma
UACC-62 melanoma = system: UACC-62 melanoma
UO-31 renal = system: UO-31 renal
NCI-H522 lung = system: NCI-H522 lung

Structure (SMILES): CC1=NN(c2nc(N)nc(/C(C#N)=C\c3cccc([N+](=O)[O-])c3)n2)C(C)(C)C1
- TGI (786-0 renal): 32 µM
- TGI (A498 renal): > 37 µM
- TGI (A549 NSCLC): > 56.8 µM
- TGI (ACHN renal): > 51.4 µM
- TGI (BT-549 breast): > 89.8 µM
- TGI (CAKI-1 renal): > 94.1 µM
- TGI (CCRF-CEM leukemia): > 66.8 µM
- TGI (COLO 205 colon): > 48 µM
- TGI (DU-145 prostate): 50.8 µM
- TGI (EKVX NSCLC): > 100 µM
- TGI (HCC-2998 colon): 22.2 µM
- TGI (HCT-116 colon): > 42.1 µM
- TGI (HCT-15 colon): > 47.6 µM
- TGI (HL-60(TB) leukemia): 4.61 µM
- TGI (HOP-62 NSCLC): 43.8 µM
- TGI (HOP-92 NSCLC): > 100 µM
- TGI (HS 578T breast): 78.6 µM
- TGI (HT29 colon): > 100 µM
- TGI (IGROV1 ovarian): 34.1 µM
- TGI (K-562 leukemia): > 35.4 µM
- TGI (KM12 colon): > 48.1 µM
- TGI (LOX IMVI melanoma): 36.3 µM
- TGI (M14 melanoma): > 48.9 µM
- TGI (MALME-3M melanoma): > 54.9 µM
- TGI (MCF7 breast): > 23 µM
- TGI (MDA-MB-231 breast): 25.1 µM
- TGI (MDA-MB-435): > 26 µM
- TGI (MDA-N): > 33.3 µM
- TGI (MOLT-4 leukemia): > 66.5 µM
- TGI (NCI-H226 lung): > 42.7 µM
- TGI (NCI-H23 lung): > 72 µM
- TGI (NCI-H460 lung): 19.7 µM
- TGI (NCI/ADR-RES ovarian): > 66.7 µM
- TGI (OVCAR-3 ovarian): 26.9 µM
- TGI (OVCAR-4 ovarian): > 60.9 µM
- TGI (OVCAR-5 ovarian): > 100 µM
- TGI (OVCAR-8 ovarian): 54 µM
- TGI (PC-3 prostate): > 53.8 µM
- TGI (RPMI-8226 leukemia): 13.1 µM
- TGI (RXF 393 renal): 14.3 µM
- TGI (SF-268 CNS): > 65.1 µM
- TGI (SF-295 CNS): 52 µM
- TGI (SF-539 CNS): 36.5 µM
- TGI (SK-MEL-2 melanoma): > 29.9 µM
- TGI (SK-MEL-28 melanoma): > 65 µM
- TGI (SK-MEL-5 melanoma): > 42.6 µM
- TGI (SK-OV-3 ovarian): 57.4 µM
- TGI (SN12C renal): > 65.3 µM
- TGI (SNB-19 CNS): 88.5 µM
- TGI (SNB-75 CNS): 30.9 µM
- TGI (SR leukemia): > 73.1 µM
- TGI (SW-620 colon): > 51 µM
- TGI (T-47D breast): 64.8 µM
- TGI (TK-10 renal): 58.8 µM
- TGI (U251 CNS): 38.4 µM
- TGI (UACC-257 melanoma): 49.3 µM
- TGI (UACC-62 melanoma): > 40.2 µM
- TGI (UO-31 renal): 15.7 µM

Structure (SMILES): CC1CN=C(Nc2ccc(F)c(Cl)c2)S1 (centres undefined)
- TGI (786-0 renal): > 100 µM
- TGI (A498 renal): > 100 µM
- TGI (A549 NSCLC): > 100 µM
- TGI (ACHN renal): > 100 µM
- TGI (BT-549 breast): > 100 µM
- TGI (CAKI-1 renal): > 100 µM
- TGI (CCRF-CEM leukemia): > 100 µM
- TGI (COLO 205 colon): > 100 µM
- TGI (DU-145 prostate): > 100 µM
- TGI (EKVX NSCLC): > 100 µM
- TGI (HCC-2998 colon): > 100 µM
- TGI (HCT-116 colon): > 100 µM
- TGI (HCT-15 colon): > 100 µM
- TGI (HL-60(TB) leukemia): > 100 µM
- TGI (HOP-62 NSCLC): > 100 µM
- TGI (HOP-92 NSCLC): > 100 µM
- TGI (HS 578T breast): > 100 µM
- TGI (HT29 colon): > 100 µM
- TGI (IGROV1 ovarian): > 100 µM
- TGI (K-562 leukemia): > 100 µM
- TGI (KM12 colon): > 100 µM
- TGI (LOX IMVI melanoma): > 100 µM
- TGI (M14 melanoma): > 100 µM
- TGI (MALME-3M melanoma): > 100 µM
- TGI (MCF7 breast): > 100 µM
- TGI (MDA-MB-231 breast): > 100 µM
- TGI (MDA-MB-435): > 100 µM
- TGI (MDA-N): > 100 µM
- TGI (NCI-H226 lung): > 100 µM
- TGI (NCI-H23 lung): > 100 µM
- TGI (NCI-H460 lung): > 100 µM
- TGI (NCI-H522 lung): > 100 µM
- TGI (NCI/ADR-RES ovarian): > 100 µM
- TGI (OVCAR-3 ovarian): > 100 µM
- TGI (OVCAR-5 ovarian): > 100 µM
- TGI (OVCAR-8 ovarian): > 100 µM
- TGI (PC-3 prostate): > 100 µM
- TGI (RPMI-8226 leukemia): > 100 µM
- TGI (RXF 393 renal): > 100 µM
- TGI (SF-268 CNS): > 100 µM
- TGI (SF-295 CNS): > 100 µM
- TGI (SF-539 CNS): > 100 µM
- TGI (SK-MEL-2 melanoma): > 100 µM
- TGI (SK-MEL-28 melanoma): > 100 µM
- TGI (SK-MEL-5 melanoma): > 100 µM
- TGI (SK-OV-3 ovarian): > 100 µM
- TGI (SNB-19 CNS): > 100 µM
- TGI (SNB-75 CNS): > 100 µM
- TGI (SR leukemia): > 100 µM
- TGI (SW-620 colon): > 100 µM
- TGI (T-47D breast): > 100 µM
- TGI (TK-10 renal): > 100 µM
- TGI (U251 CNS): > 100 µM
- TGI (UACC-257 melanoma): > 100 µM
- TGI (UACC-62 melanoma): > 100 µM
- TGI (UO-31 renal): 91.8 µM
